From patent publication US9113629B2, “4-amino-6-(4-substituted-phenyl)-picolinates and 6-amino-2-(4-substituted-phenyl)-pyrimidine-4-carboxylates and their use as herbicides” (DOW AGROSCIENCES LLC, priority 2013, dated 2015)

Columns and labels:
[1] = system: Key Broadleaf Weed and Crop Species; experiment: Post-emergent Test II herbicidal activity (Table 5); type: in vivo; settings: post-emergent; for Visual Growth Reduction (%) 14 Days After Application, ABUTH: ABUTH: velvetleaf (Abutilon theophrasti); for Visual Growth Reduction (%) 14 Days After Application, AMARE: AMARE: redroot pigweed (Amaranthus retroflexus); for Visual Growth Reduction (%) 14 Days After Application, BRSNN: BRSNN: oilseed-rape, canola (Brassica napus); for Visual Growth Reduction (%) 14 Days After Application, CHEAL: CHEAL: lambsquarters (Chenopodium album); for Visual Growth Reduction (%) 14 Days After Application, EPHHL: EPHHL: wild poinsettia (Euphorbia heterophylla); for Visual Growth Reduction (%) 14 Days After Application, HELAN: HELAN: sunflower (Helianthus annuus); for Visual Growth Reduction (%) 14 Days After Application, VIOTR: VIOTR: wild pansy (Viola tricolor)
Outline: (§1)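 Greenhouse post-emergent assay: seedlings (first/second true leaf) in Metro-Mix 360 were sprayed at 187 L/ha at a top rate plus twofold dilutions down to 1/16×; solvent-blank controls were included. Percent visual injury was read at 14 d.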

[2] = system: Key Grass and Sedge Weeds as well as Grass Crops; experiment: Post-emergent Test II herbicidal activity (Table 6); type: in vivo; settings: for Visual Growth Reduction (%) 14 Days After Application, CYPES: CYPES: yellow nutsedge (Cyperus esculentus); for Visual Growth Reduction (%) 14 Days After Application, DIGSA: DIGSA: crabgrass (Digitaria sanguinalis); for Visual Growth Reduction (%) 14 Days After Application, ECHCG: ECHCG: barnyardgrass (Echinochloa crus-galli); for Visual Growth Reduction (%) 14 Days After Application, ORYSA: ORYSA: rice (Oryza sativa); for Visual Growth Reduction (%) 14 Days After Application, SORVU: SORVU: sorghum (Sorghum vulgare); for Visual Growth Reduction (%) 14 Days After Application, TRZSS: TRZSS (wheat); for Visual Growth Reduction (%) 14 Days After Application, ZEAMX: ZEAMX: maize, corn (Zea mays)
Outline: as §1

COC(=O)c1nc(-c2ccc(C(F)(F)F)c(F)c2)c(Cl)c(N)c1Cl [Compound 58]
C (75-84): Visual Growth Reduction (%) 14 Days After Application, BRSNN ([1]; 140 g ai/ha) | Visual Growth Reduction (%) 14 Days After Application, DIGSA ([2]; application rate 140 g ai/ha) | Visual Growth Reduction (%) 14 Days After Application, ECHCG ([2]; application rate 140 g ai/ha)
G (0-29): Visual Growth Reduction (%) 14 Days After Application, EPHHL ([1]; 70 g ai/ha) | Visual Growth Reduction (%) 14 Days After Application, EPHHL ([1]; 140 g ai/ha) | Visual Growth Reduction (%) 14 Days After Application, VIOTR ([1]; 70 g ai/ha) | Visual Growth Reduction (%) 14 Days After Application, VIOTR ([1]; 140 g ai/ha) | Visual Growth Reduction (%) 14 Days After Application, ECHCG ([2]; application rate 70 g ai/ha) | Visual Growth Reduction (%) 14 Days After Application, ORYSA ([2]; application rate 70 g ai/ha) | Visual Growth Reduction (%) 14 Days After Application, ORYSA ([2]; application rate 140 g ai/ha)
A (95-100): Visual Growth Reduction (%) 14 Days After Application, ABUTH ([1]; 140 g ai/ha) | Visual Growth Reduction (%) 14 Days After Application, AMARE ([1]; 140 g ai/ha) | Visual Growth Reduction (%) 14 Days After Application, CHEAL ([1]; 70 g ai/ha) | Visual Growth Reduction (%) 14 Days After Application, CHEAL ([1]; 140 g ai/ha) | Visual Growth Reduction (%) 14 Days After Application, HELAN ([1]; 70 g ai/ha) | Visual Growth Reduction (%) 14 Days After Application, HELAN ([1]; 140 g ai/ha) | Visual Growth Reduction (%) 14 Days After Application, CYPES ([2]; application rate 70 g ai/ha) | Visual Growth Reduction (%) 14 Days After Application, CYPES ([2]; application rate 140 g ai/ha)
D (60-74): Visual Growth Reduction (%) 14 Days After Application, BRSNN ([1]; 70 g ai/ha) | Visual Growth Reduction (%) 14 Days After Application, DIGSA ([2]; application rate 70 g ai/ha) | Visual Growth Reduction (%) 14 Days After Application, TRZSS ([2]; application rate 140 g ai/ha) | Visual Growth Reduction (%) 14 Days After Application, ZEAMX ([2]; application rate 70 g ai/ha) | Visual Growth Reduction (%) 14 Days After Application, ZEAMX ([2]; application rate 140 g ai/ha)
B (85-94): Visual Growth Reduction (%) 14 Days After Application, ABUTH ([1]; 70 g ai/ha) | Visual Growth Reduction (%) 14 Days After Application, AMARE ([1]; 70 g ai/ha)
E (45-59): Visual Growth Reduction (%) 14 Days After Application, SORVU ([2]; application rate 70 g ai/ha) | Visual Growth Reduction (%) 14 Days After Application, SORVU ([2]; application rate 140 g ai/ha) | Visual Growth Reduction (%) 14 Days After Application, TRZSS ([2]; application rate 70 g ai/ha)
